Data: US20090221616A1, “QUINAZOLINE DERIVATIVES AS EGF AND/OR ERBB2 TYROSINE KINASE INHIBITORS” (priority 2005, published 2009)

Legend:
[1] = target: T1, erbB2 in a MCF7 derived cell line (Clone 24 cells) (Homo sapiens, UniProt P04626); test: Test (c) Clone 24 phospho-erbB2 cell assay; assay type: cell-based; conditions: MCF7 derived Clone 24 cells, 4 hours with compound; read-out: IC50 Test (c): Inhibition of erbB2 tyrosine kinase protein phosphorylation
T1 construct: to give a cell line that overexpresses full length wild type erbB2 protein; expressed in transfected cells; host or cells: MCF7 (breast carcinoma) derived Clone 24 cells
T1 sequence (P04626 23-1255): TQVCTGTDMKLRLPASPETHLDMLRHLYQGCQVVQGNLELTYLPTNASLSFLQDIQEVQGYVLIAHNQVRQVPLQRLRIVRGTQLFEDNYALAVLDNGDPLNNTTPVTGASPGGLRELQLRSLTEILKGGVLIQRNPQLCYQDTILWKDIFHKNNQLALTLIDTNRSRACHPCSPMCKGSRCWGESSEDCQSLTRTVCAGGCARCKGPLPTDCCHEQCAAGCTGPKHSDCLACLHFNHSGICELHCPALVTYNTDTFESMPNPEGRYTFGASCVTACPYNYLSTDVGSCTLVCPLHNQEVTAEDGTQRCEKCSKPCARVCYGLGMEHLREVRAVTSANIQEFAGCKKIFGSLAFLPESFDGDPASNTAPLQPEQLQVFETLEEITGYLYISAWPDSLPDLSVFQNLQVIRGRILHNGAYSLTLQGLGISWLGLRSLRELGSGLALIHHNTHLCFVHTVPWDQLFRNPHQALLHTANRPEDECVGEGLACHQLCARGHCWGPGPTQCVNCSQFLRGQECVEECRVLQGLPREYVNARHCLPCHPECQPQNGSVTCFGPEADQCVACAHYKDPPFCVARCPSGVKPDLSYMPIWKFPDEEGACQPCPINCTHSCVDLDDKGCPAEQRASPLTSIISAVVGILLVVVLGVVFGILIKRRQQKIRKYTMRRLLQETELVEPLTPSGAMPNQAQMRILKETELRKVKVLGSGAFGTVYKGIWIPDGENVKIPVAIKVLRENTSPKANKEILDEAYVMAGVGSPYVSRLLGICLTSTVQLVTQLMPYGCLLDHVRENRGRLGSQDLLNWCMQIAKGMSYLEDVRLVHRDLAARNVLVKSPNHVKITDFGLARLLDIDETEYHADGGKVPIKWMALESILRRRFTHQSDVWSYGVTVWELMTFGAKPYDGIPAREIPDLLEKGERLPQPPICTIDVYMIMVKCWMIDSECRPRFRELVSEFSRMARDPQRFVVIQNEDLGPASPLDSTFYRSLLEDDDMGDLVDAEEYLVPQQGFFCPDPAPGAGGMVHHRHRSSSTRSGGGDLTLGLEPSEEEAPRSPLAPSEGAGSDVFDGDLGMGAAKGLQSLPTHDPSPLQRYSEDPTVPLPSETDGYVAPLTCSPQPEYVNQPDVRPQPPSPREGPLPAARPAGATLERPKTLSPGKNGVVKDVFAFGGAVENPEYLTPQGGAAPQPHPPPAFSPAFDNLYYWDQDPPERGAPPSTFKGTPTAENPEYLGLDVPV
Procedure: This immunofluorescence end point assay measures the ability of a test compound to inhibit the phosphorylation of erbB2 in a MCF7 (breast carcinoma) derived cell line which was generated by transfecting MCF7 cells with the full length erbB2 gene using standard methods to give a cell line that overexpresses full length wild type erbB2 protein (hereinafter ‘Clone 24’ cells).
Clone 24 cells were cultured in Growth Medium (phenol red free Dulbecco's modified Eagle's medium (DMEM) containing 10% foetal bovine serum, 2 mM glutamine and 1.2 mg/ml G418) in a 7.5% CO2 air incubator at 37° C. […] Cell density was measured using a haemocytometer and viability was calculated using Trypan Blue solution before being further diluted in Growth Medium and seeded at a density of 1×10^4 cells per well (in 100 μl) into clear bottomed 96 well plates (Packard, No. 6005182). […]
Immunostaining was performed at room temperature. […] Plates were analysed within six hours of completing the immunostaining.
The Fluorescence signal is each well was measured using an Acumen Explorer Instrument (Acumen Bioscience Ltd.), a plate reader that can be used to rapidly quantitate features of images generated by laser-scanning. […]

EGFR tyrosine kinase = target: T2, EGFR tyrosine kinase (Homo sapiens, UniProt P00533); test: Test (a) protein tyrosine kinase phosphorylation assay, EGFR; assay type: biochemical; conditions: ATP at Km concentration; read-out: IC50 Test (a): Inhibition of EGFR tyrosine kinase protein phosphorylation
T2 construct: Recombinant intracellular fragments of EGFR, erbB2 and erbB4; made in house; host or cells: baculovirus/Sf21 insect cells (cleared lysate used)
T2 sequence (P00533 669-1210 limits assumed): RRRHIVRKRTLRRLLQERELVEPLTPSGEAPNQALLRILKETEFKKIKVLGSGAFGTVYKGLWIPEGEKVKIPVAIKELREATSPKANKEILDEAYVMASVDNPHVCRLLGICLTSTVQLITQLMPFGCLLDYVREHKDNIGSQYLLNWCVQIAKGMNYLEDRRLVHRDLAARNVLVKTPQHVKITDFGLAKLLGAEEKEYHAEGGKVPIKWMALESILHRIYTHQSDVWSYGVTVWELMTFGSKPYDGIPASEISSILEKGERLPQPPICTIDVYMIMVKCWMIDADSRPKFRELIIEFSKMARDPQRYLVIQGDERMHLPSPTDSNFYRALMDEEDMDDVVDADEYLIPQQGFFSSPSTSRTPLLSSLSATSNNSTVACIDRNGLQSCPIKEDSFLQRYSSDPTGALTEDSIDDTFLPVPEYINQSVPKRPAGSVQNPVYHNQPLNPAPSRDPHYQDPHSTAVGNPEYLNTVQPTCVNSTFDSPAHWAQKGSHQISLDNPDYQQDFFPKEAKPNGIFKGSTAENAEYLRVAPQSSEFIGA
Procedure: (§1) This test measures the ability of a test compound to inhibit the phosphorylation of a tyrosine containing polypeptide substrate by EGFR, erbB2 and erbB4 tyrosine kinase enzyme.
(§2) Recombinant intracellular fragments of EGFR, erbB2 and erbB4 (accession numbers X00588, X03363 and L07868 respectively) were cloned and expressed in the baculovirus/Sf21 system. […]
(§3) Constitutive kinase activity of these recombinant proteins was determined by their ability to phosphorylate a synthetic peptide (made up of a random co-polymer of Glutamic Acid, Alanine and Tyrosine in the ratio of 6:3:1). […]
(§4) The immobilised phospho-peptide product of the reaction was detected by immunological methods. […] After further washing, HRP activity in each well of the plate was measured colorimetrically using 22′-Azino-di-[3-ethylbenzthiazoline sulfonate (6)] diammonium salt crystals (ABTS™ from Roche) as a substrate.
(§5) Quantification of colour development and thus enzyme activity was achieved by the measurement of absorbance at 405 nm on a Molecular Devices ThermoMax microplate reader. Kinase inhibition for a given compound was expressed as an IC50 value. […] The range of phosphorylation was calculated from the positive (vehicle plus ATP) and negative (vehicle minus ATP) control values.

erbB2 tyrosine kinase = target: T3, erbB2 tyrosine kinase (Homo sapiens, UniProt P04626); test: Test (a) protein tyrosine kinase phosphorylation assay, erbB2; assay type: biochemical; conditions: ATP at Km concentration; read-out: IC50 Test (a): Inhibition of erbB2 tyrosine kinase protein phosphorylation
T3 construct: Recombinant intracellular fragments of EGFR, erbB2 and erbB4; made in house; host or cells: baculovirus/Sf21 insect cells (cleared lysate used)
T3 sequence (P04626 676-1255 limits assumed): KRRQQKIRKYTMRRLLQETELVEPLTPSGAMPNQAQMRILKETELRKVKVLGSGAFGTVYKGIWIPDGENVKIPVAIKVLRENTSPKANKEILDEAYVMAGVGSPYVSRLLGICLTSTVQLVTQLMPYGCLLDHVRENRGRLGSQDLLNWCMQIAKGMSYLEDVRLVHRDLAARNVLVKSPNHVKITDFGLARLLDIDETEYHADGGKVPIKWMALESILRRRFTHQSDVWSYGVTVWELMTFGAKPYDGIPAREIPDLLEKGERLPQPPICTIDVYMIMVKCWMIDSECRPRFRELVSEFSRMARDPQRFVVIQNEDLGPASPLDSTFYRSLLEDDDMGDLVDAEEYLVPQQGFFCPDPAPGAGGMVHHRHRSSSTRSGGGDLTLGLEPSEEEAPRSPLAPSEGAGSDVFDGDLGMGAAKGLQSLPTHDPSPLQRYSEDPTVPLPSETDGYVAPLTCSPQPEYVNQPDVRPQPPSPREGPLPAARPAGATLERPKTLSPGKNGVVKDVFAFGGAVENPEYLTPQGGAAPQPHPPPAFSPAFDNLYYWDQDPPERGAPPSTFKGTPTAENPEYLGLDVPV
Procedure: as §1, §2, §3, §4, §5

Structure (SMILES) | IC50 [1] [nM] | IC50 (EGFR tyrosine kinase) [nM] | IC50 (erbB2 tyrosine kinase) [nM]
CN(CCOc1cccc2ncnc(Nc3ccc4c(cnn4Cc4ccccn4)c3)c12)C(=O)CO [Example 1, 2-Hydroxy-N-methyl-N-{2-[(4-{[1-(pyridin-2-ylmethyl)-1H-indazol-5-yl]amino}quinazolin-5-yl)oxy]ethyl}acetamide] | 420 | 180 | 8
CN(CCOc1cccc2ncnc(Nc3ccc4c(cnn4Cc4cscn4)c3)c12)C(=O)CO [Example 2, 2-Hydroxy-N-methyl-N-{2-[(4-{[1-(1,3-thiazol-4-ylmethyl)-1H-indazol-5-yl]amino}quinazolin-5-yl)oxy]ethyl}acetamide] | 590 | 160 | 6
